Measured values as given in publication PMC10057480, “Expanding the Library of 1,2,4-Oxadiazole Derivatives: Discovery of New Farnesoid X Receptor (FXR) Antagonists/Pregnane X Receptor (PXR) Agonists” (Molecules, 2023).
Where “and” joins values, the source holds several entries; their conditions need not be identical. Equal values may be shown once.

Assays:
Assay type in all cases: cell-based
PXR = biological target: T1, PXR (Homo sapiens, UniProt O75469); experiment: PXR luciferase reporter transactivation assay (agonism) on HepG2 cells; conditions: compound 10 μM, maximal transactivation compared to Rifaximin 10 μM, mean ± SD, at least three experiments
T1 construct: expressed in transfected cells; host or cells: HepG2
T1 sequence (O75469 1-434): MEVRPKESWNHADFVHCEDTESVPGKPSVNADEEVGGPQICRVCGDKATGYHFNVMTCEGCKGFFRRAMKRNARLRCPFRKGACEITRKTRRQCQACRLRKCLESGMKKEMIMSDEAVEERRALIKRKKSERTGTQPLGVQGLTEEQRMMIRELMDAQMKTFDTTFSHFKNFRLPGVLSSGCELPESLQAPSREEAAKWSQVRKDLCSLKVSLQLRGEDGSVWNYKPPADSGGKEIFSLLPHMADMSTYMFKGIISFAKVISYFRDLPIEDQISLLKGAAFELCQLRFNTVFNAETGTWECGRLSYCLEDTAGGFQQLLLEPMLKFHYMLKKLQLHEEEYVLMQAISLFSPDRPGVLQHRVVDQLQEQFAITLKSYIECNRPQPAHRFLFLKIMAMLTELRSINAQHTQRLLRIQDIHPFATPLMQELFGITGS
T1 sequence (P19793 1-462 partner): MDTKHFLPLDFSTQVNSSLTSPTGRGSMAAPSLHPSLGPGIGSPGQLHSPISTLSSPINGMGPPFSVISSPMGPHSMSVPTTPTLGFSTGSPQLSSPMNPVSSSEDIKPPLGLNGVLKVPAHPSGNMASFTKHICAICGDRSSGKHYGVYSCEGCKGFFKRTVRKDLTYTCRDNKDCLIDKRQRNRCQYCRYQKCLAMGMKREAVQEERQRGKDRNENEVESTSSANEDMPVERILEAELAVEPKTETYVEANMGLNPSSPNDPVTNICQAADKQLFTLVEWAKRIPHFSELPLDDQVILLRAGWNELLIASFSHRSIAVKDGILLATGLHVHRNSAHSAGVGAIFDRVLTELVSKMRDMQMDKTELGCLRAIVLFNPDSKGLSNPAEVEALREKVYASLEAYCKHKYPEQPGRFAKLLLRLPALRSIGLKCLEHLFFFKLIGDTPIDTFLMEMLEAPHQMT
Method: (§1) The antagonistic activity on FXR was investigated using HepG2 cells transfected with 100 ng of pSG5-FXR and pSG5-RXR, 200 ng of the reporter vector p(hsp27)-TK-LUC containing the FXR response element, and 100 ng of the pGL4.70 vector encoding the human Renilla gene used as a transfection control. Cells were stimulated with the agonist 6-ECDCA (10 µM) alone or in combination with compounds 2–11 after 24 h. In another experimental setting, HepG2 cells were transfected using 100 ng of pSG5-PXR, 100 ng of pSG5-RXR, and 100 ng of pGL4.70, along with the reporter vector pGL3(henance)PXRE. At 24 h post-transfection, cells were stimulated with rifaximin 10 μM (as a positive control) or compounds 2–11 (10 μM). The specificity of compounds 5 and 11 versus FXR and PXR was tested using HepG2 cells transiently transfected with 200 ng of the reporter vector p(UAS)5XTKLuc, 100 ng of a vector containing the ligand binding domain of LXRα or LXRβand 100 ng of pGL4.70, a vector encoding the human Renilla gene. At 24 h post-transfection, cells were stimulated for 18 h with GW3965 (5 μM), compounds 5 and 11 (10 μM), and the combination of GW3965 plus 5 or 11 (50 μM). Cellular lysate was assayed for luciferase and Renilla activities after 18 h using the Dual-Luciferase Reporter assay system (E1980, Promega, Madison, WI, USA). The activity of luciferase was measured using the Glomax 20/20 luminometer (Promega, Madison, WI, USA) and normalized with Renilla activities.

FXR = biological target: T2, FXR (Homo sapiens, UniProt Q96RI1); experiment: FXR luciferase reporter transactivation assay (antagonism) on HepG2 cells; conditions: HepG2 transactivation; compounds at 50 μM; percent inhibition of transactivation set at 100%; mean ± SD, at least three experiments
T2 construct: expressed in transfected cells; host or cells: HepG2
T2 sequence (Q96RI1 1-486): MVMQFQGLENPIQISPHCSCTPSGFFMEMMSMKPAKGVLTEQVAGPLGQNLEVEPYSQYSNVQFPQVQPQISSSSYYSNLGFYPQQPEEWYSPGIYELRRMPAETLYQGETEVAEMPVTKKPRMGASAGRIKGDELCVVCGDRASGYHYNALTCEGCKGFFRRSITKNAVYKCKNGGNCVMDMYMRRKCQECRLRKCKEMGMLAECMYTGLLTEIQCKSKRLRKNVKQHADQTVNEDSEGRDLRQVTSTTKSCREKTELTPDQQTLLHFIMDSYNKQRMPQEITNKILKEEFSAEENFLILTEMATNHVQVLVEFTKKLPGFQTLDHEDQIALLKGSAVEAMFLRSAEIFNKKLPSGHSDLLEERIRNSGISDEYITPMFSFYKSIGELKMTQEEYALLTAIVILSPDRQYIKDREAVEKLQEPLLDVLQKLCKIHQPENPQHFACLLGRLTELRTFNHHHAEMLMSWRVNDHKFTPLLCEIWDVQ
Method: as §1, with “Cells were stimulated with the agonist 6-ECDCA (10 µM) alone or in combination with compounds 2–11 after 24 h.” left out

HepG2 cells = experiment: Toxicity on HepG2 cells seen in the FXR transactivation assay; conditions: at 50 μM
Method: as §1

[1] = test system: Human-CaCo2 cells stimulated with TNFα; experiment: qPCR of PXR and inflammatory cytokines in TNFα-stimulated CaCo2 cells; conditions: TNFα 100 ng/mL plus compound 10 μM
Method: HepG2 and CaCo2 cell lines, obtained from ATCC, were routinely cultured in Eagle’s MEM and high-glucose DMEM, respectively, supplemented with 10% FBS, 1% glutamine, and penicillin/streptomycin. For in vitro experiments, HepG2 (2 × 106) cells were stimulated with 6-ECDCA at a concentration of 10 µM alone or in combination with compound 5 or 11, and CaCo2 cells were exposed to TNFα (100 ng/mL) alone or in combination with rifaximin, compound 5, or 11.
Total RNA was isolated from the HepG2 and CaCo2 cell lines using TRI reagent (Zymo Research) and Direct-zol™ RNA MicroPrep w/Zymo-Spin™ IIC Columns (Zymo Research, Irvine, CA, USA). After purification from genomic DNA using DNase I (Thermo Fisher Scientific, Waltham, MA, USA), 2 μg of RNA from each sample was reverse transcribed using Kit FastGene Scriptase Basic (Nippon Genetics, Mariaweilerstraße, Düren, Germany) in 20-μL of reaction volume, and 50 ng of cDNA was amplified in a 20-μL solution containing 200 nM of each primer and 10 μL of PowerUp™ SYBR™ Green Master Mix (Thermo Fisher Scientific, Waltham, MA, USA) using a Quantstudio 3 system (Applied Biosystems, Foster City, CA, USA). The relative mRNA expression was calculated according to the ΔCt method. The primer used were as follows (forward and reverse): hGapdh (for […]; rev […]), hBsep (for […]; rev […]), hOstα (for […]; rev […]), hNtcp (for […]; rev […]), hPxr (for GCAAGGGCTTTTTCAGGAG; rev GGGTCTTCCGGGTGATCT), hIl-8 (for […]; rev […]), hIl-1β (for […]; rev […]).

Row | SMILES | PXR Agonism Eff (%) (PXR) | FXR Antagonism Eff (%) (FXR) | Toxicity on HepG2 cells (HepG2 cells) | Effect on proinflammatory factors caused by TNFα stimulation [1]
1 | CCCCN1CCC(c2nc(-c3ccc4ccccc4c3)no2)CC1 [Compound 4, 5-(1-Butylpiperidin-4-yl)-3-(naphthalen-2-yl)-1,2,4-oxadiazole] | 68% and 68 ± 8% | 38 ± 5% | – | –
2 | CCCCCCCN1CCC(c2nc(-c3ccc4ccccc4c3)no2)CC1 [Compound 7, 5-(1-Heptylpiperidin-4-yl)-3-(naphthalen-2-yl)-1,2,4-oxadiazole] | 28 ± 3% | Toxic | toxic | –
3 | CCCN1CCC(c2nc(-c3ccc4ccccc4c3)no2)CC1 [Compound 3, 3-(Naphthalen-2-yl)-5-(1-propylpiperidin-4-yl)-1,2,4-oxadiazole] | 15 ± 0.5% | Toxic | toxic | –
4 | CC(C)N1CCC(c2nc(-c3ccc4ccccc4c3)no2)CC1 [Compound 8, 5-(1-Isopropylpiperidin-4-yl)-3-(naphthalen-2-yl)-1,2,4-oxadiazole] | 50% and 50 ± 7% | – | – | –
5 | CCCCCCN1CCC(c2nc(-c3ccc4ccccc4c3)no2)CC1 [Compound 6, 5-(1-Hexylpiperidin-4-yl)-3-(naphthalen-2-yl)-1,2,4-oxadiazole] | 23 ± 0.7% | – | – | –
6 | CCC(C)N1CCC(c2nc(-c3ccc4ccccc4c3)no2)CC1 (stereo not shown) [Compound 9, 5-(1-(Sec-butyl)piperidin-4-yl)-3-(naphthalen-2-yl)-1,2,4-oxadiazole] | 3 ± 0.2% | Toxic | toxic | –
7 | CCN1CCC(c2nc(-c3ccc4ccccc4c3)no2)CC1 [Compound 2, 5-(1-Ethylpiperidin-4-yl)-3-(naphthalen-2-yl)-1,2,4-oxadiazole] | 2 ± 0.3% | Toxic | toxic | –
8 | OCc1cccc(CN2CCC(c3nc(-c4ccc5ccccc5c4)no3)CC2)c1 [Compound 10, 5-[1-(3-(Hydroxymethyl)benzyl)piperidin-4-yl]-3-(naphthalen-2-yl)-1,2,4-oxadiazole] | 20 ± 3% | 66% and 66 ± 13% | – | –
9 | CO[C@H]1/C=C/O[C@@]2(C)Oc3c(C)c(O)c4c(O)c(c5c(nc6cc(C)ccn65)c4c3C2=O)NC(=O)/C(C)=C\C=C\[C@H](C)[C@H](O)[C@@H](C)[C@@H](O)[C@@H](C)[C@H](OC(C)=O)[C@@H]1C [rifaximin, reference compound] | – | – | – | reduced changes in the production of proinflammatory factors
